Reference: PMC6689899, “An essential bifunctional enzyme in Mycobacterium tuberculosis for itaconate dissimilation and leucine catabolism” (Proceedings of the National Academy of Sciences of the …, 2019)

What was measured:
[1] = target: T1, Rv2498c (Mycobacterium tuberculosis, UniProt P9WPE1)
T1 construct: gene citE

[2] = system: CC(=O)SCCNC(=O)CCNC(=O)[C@H](O)C(C)(C)COP(=O)(O)OP(=O)(O)OC[C@H]1O[C@@H](n2cnc3c(N)ncnc32)[C@H](O)[C@@H]1OP(=O)(O)O; assay: purified protein

T1 sequence (P9WPE1 whole entry): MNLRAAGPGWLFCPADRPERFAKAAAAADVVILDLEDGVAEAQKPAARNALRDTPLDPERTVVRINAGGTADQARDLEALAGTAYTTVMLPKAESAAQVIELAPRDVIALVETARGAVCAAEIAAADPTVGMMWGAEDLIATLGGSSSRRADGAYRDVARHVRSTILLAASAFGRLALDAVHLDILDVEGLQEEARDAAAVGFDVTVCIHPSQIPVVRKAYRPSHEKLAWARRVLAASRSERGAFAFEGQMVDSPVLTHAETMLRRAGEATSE

Row | Compound | X-ray crystal structure [1] | Km [2] | kcat/Km [2]
1 | CC(C)(COP(=O)(O)OP(=O)(O)OC[C@H]1O[C@@H](n2cnc3c(N)ncnc32)[C@H](O)[C@@H]1OP(=O)(O)O)[C@@H](O)C(=O)NCCC(=O)NCCS [CoA] | complexes with (S)-citramalyl-CoA (PDB ID code 6AQ4) and with acetoacetate:CoA (PDB ID code 6AS5) | – | –
2 | CC(=O)CC(=O)O [acetoacetate] | complexes with (S)-citramalyl-CoA (PDB ID code 6AQ4) and with acetoacetate:CoA (PDB ID code 6AS5) | – | –
3 | Rv1837c (Mycobacterium tuberculosis H37Rv) | – | 45 ± 9 µM | 1.7e+06 M⁻¹ s⁻¹
